The values that follow come from publication PMC7618036, “An oral heme oxygenase inhibitor targets immunosuppressive perivascular macrophages in preclinical models of cancer” (Science translational medicine, 2025).

Data set [1] relates to CD8^+ T-cells in MMTV-PyMT tumors. In words: Flow cytometry of the TME of MMTV-PyMT tumors after 36 h treatment. Format: in vivo, mouse. The following applies: single-agent therapy. As for the experimental part:
At 36 h post treatment initiation of treatment mice were sacrificed and tumors were harvested and analyzed. (A) Schematic representing the dosing strategy. (B) The fold change of tumor growth over 36 h post initiation of treatment. (C-G) Tumors were enzyme-digested to release single cells which were analyzed for their live (7AAD^-) stromal cell composition using flow cytometry (n=5 tumors per group) (C) and CD8^+ T-cells (D). Gating strategy (left panel) and quantitation of CD8^+ T-cell subsets based on CD62L and CD44 expressions (right panel; TCM; T central memory cells, TEM; T effector memory cells, Teff; T effectors cells) (E), and the ability of the tumoral CD8^+ T-cells to secrete IFNγ post ex vivo exposure to PMA/ionomycin treatment (F). […] Scale bar is 100 µm and white arrows indicate infiltrating CD8^+ T-cells. […] Image in panel (A) was created using BioRender. Bar charts show the mean, error bars SD, and the dots show individual data points from individual tumors and mice. Gemc.; gemcitabine. * P<0.05, ** P<0.01, *** P<0.001.
MN-MCA1 sarcoma cells were orthotopically implanted into syngeneic C57Bl/6 mice for tumors. A total of 2.5 x 10^5 cells in 100 μL RPMI were injected subcutaneously into female mice. […] When tumors became palpable, volumes were measured every 2-4 days using digital caliper measurements of the long (L) and short (S) dimensions of the tumor. […]
(In general: In flow cytometry, cells or beads pass a laser one at a time.)

In a further data set the test system is MMTV-PyMT mice. In words: Toxicity evaluation of MMTV-PyMT mice after 21 days of treatment. The format is in vivo, mouse. To be noted: KCL-HO-1i p.o. and/or gemcitabine i.p. As for the experimental part: (D-G) The MMTV-PyMT mice in (B) were evaluated for evidence of toxicity, including weight change from treatment initiation (D), end of treatment (day 21) plasma ratio of AST:ALT enzymes (E), blood circulating immune cells assessed using flow cytometry (F) and pathology assessment of inflammatory cell infiltrate in the lungs alongside an additional cohort or WT non-tumor bearing mice given dual treatment for 21 days and then assessed at treatment cessation or 30 days after treatment cessation (G). Image in panel (A) was created using BioRender. Bar charts show the mean, error bars SD, and the dots show individual data points from individual tumors and mice. Line charts display the mean and SEM. Gemc.; gemcitabine. * P<0.05, ** P<0.01.
Tissue sections (3µm) were cut from FFPE tissues from the brain, lung, heart, kidney, and liver of treated animals and mounted onto Plus^+ Frost slides (Solmedia). […] Tissue sections were initially examined unblinded and then re-evaluated blinded to confirm the significant findings ([77]). Findings in the tissue were scored using a non-linear semiquantitative grading system from 0 to 5 where 0 = no significant change and 5 = whole organ or tissue affected ([78]). Where grading was not appropriate, findings were scored ‘present’ (P) if seen. In addition, an approximate number of lung metastases was recorded in parentheses after P if present ([78]). […]

As for `Nc1ccn([C@@H]2O[C@H](CO)[C@@H](O)C2(F)F)c(=O)n1` [gemcitabine], in data set [1], the “abundance of CD8^+ T-cells in the TME” value is “increase in the abundance of CD8^+ T-cells”. For the same molecule, in the data set on MMTV-PyMT mice, the “immune cell composition of the blood” value is listed as “unaffected”.
